pIC50: −log10 of the molar value. Values after ≈ are worked out from the molar mass of the structure shown. Like-named read-outs stand apart in the source and are kept apart here.
Legend:
[1] = test system: Staphylococcus aureus Smith; test: Efficacy in murine S. aureus septicemia; type: in vivo, ICR mice; conditions: for Efficacy in the murine S. aureus septicemia model relative to clindamycin: IV route of administration, compound given 1 hour after inoculation; for Efficacy in the murine S. aureus septicemia model relative to clindamycin / Efficacy in the murine S. aureus septicemia model by oral route: mice; for ED50: Staphylococcus aureus, murine S. aureus Smith septicemia, dosed 1 hour after inoculation, mortality 7 days; for Efficacy in the murine S. aureus septicemia model by oral route: oral route of administration
Method: (§1) Efficacy studies were performed in an S. aureus murine septicemia model according to models published elsewhere (Goldstein, B. P., G. Candiani, T. M. Arain, G. Romano, I. Ciciliato, M. Berti, M. Abbondi, R. Scotti, M. Mainini, F. Ripamonti, and et al. 1995. Antimicrobial activity of MDL 63,246, a new semisynthetic glycopeptide antibiotic Antimicrob. Agents Chemother. 39:1580-1588; Misiek, M., T. A. Pursiano, F. Leitner, and K. E. Price 1973. Microbiological properties of a new cephalosporin, BL-S 339:7-(phenylacetimidoyl-aminoacetamido)-3-(2-methyl-1,3,4-thiadiazol-5-ylthio methyl)ceph-3-em-4-carboxylic acid Antimicrob. Agents Chemother. 3:40-48).
Compounds were dissolved in 2% Tween 80 for oral dosing or 0.9% NaCl solution for intravenous dosing. Compounds were administered at 1 hour after bacterial inoculation. Vancomycin or ampicillin were used as controls.
(§2) Male or female ICR mice weighing 22±2 g from MDS Pharma Services were used for the evaluation. Food and water was given ad libitum. Groups of 6 mice weighing […] were used for the experiment. Mice were inoculated intraperitoneally with Staphylococcus aureus Smith at 4 104 CFU in 0.5 ml of Brain Heart Infusion Broth (Difco) containing 5% mucin (Sigma). Mortality was recorded once daily for 7 days following bacterial inoculation.
as §1, with “39:1580-1588.;” for “39:1580-1588;”, “339: 7-(phenylacetimidoyl-aminoacetamido)-3-(2-methyl-1,3,4-thiadiazol-5-ylthio” for “339:7-(phenylacetimidoyl-aminoacetamido)-3-(2-methyl-1,3,4-thiadiazol-5-ylthio”
as §2, with “mL” for “ml”

[2] = test system: E. coli transcription/translation (bacterial protein synthesis, E. coli S30 extract); test: In vitro inhibition of E. coli transcription and translation assay (TT), cell-free; type: biochemical; conditions: for pIC50: cell-free E. coli S30 extract; for In vitro inhibition of E. coli transcription and translation compared with literature azepine compound VIII(18): cell-free TT assay, comparison in words
Method: Inhibition of bacterial protein synthesis was assayed in a cell-free E. coli transcription/translation assay.
Stock solutions of compounds were prepared at 10 mg/mL in DMSO. The assay contained less or equal to 1% (v/v) final concentration of DMSO. Three-fold serial dilutions were prepared in assay buffer at 6-fold final concentration in 96 well microtiter plate.
All vials, tubes and microtiter plates are RNase free. The Mix was freshly prepared with 10 μl H2O, 10 μl AA-M, 10 μl AA-L, 80 μl Premix and 50 μl ES30 extract. The assay was performed in a 96-well plate. Five microliters of compounds at various concentrations (6-fold final assay concentration) were preincubated with 20 μl of the mix for 5 min at room temperature. The reaction started with addition of 5 μl of plasmid (˜0.1 mg/mL pGEMBGAL), and kept at 37° C. for 1 h followed by the addition of 150 μl of OPNG solution (4 mg/mL OPNG in 0.1M NaPi, pH 7.5, 1 mM MgCl2 and 2 mM DTT). 150 μl of the reaction was transferred to a ½-area plate and increase in absorption at OD420 nm was monitored for 10 min using a Spectramax plate reader (Molecular Devices). The slope of absorption change over time is corresponding to the pathway activity.
The E. coli S30 Extract for circular DNA kit was purchased from Promega. Original plasmid pGEMBGAL was obtained from Promega and amplified via Maxiprep in house. 2-Nitrophenyl β-D-galactopyranoside was obtained from Sigma. Clindamycin HCl (USP) was purchased from Spectrum.
The inhibition are expressed as percent of control activity (without inhibitor) which is calculated according to equation (1): Inhibition %=(compound slope-blank slope)/(control slope-blank slope)*100 (1)
All IC50s were determined by fitting the experimental data to equation (2) using software DeltaGraph (DeltaPoint Inc.): Y=Y0/(1+(X/IC50)[…])+c (2)
Where Y: activity at given inhibitor concentration; Y0: activity without inhibitor; X: inhibitor concentration; d: slope; c: constant.
Lincosamides inhibit bacterial growth through binding to the bacterial 50S ribosome, thus inhibiting peptide bond formation. The transcription/translation assay provides a screening tool to measure inhibition of bacterial protein synthesis pathway at the target level without the complication of differences in membrane permeability.

Bacteroides fragilis = test: Susceptibility testing, NCCLS microdilution MIC (anaerobe); type: cell-based; conditions: Bacteroides fragilis, ATCC25285; B. fragilis ATCC 25285; Example A′; read-out: MIC B. fragilis
Enterococcus faecalis = test: Susceptibility testing, NCCLS microdilution MIC; type: cell-based; conditions: Enterococcus faecalis, ATCC29212; E. faecalis ATCC 29212; Example A′; read-out: MIC E. faecalis
Haemophilus influenzae = test: Susceptibility testing, NCCLS microdilution MIC; type: cell-based; conditions: Haemophilus influenzae, ATCC31517; H. influenzae ATCC 31517; Example A′; read-out: MIC H. influenzae
Staphylococcus aureus = test: Susceptibility testing, NCCLS microdilution MIC; type: cell-based; conditions: ATCC25923, S. aureus ATCC 25923, Example A′, read-out: MIC S. aureus
[3] = intravenous administration, read-out: ED50, IV
[4] = oral administration, read-out: ED50, PO

SMILES | Efficacy in the murine S. aureus septicemia model relative to clindamycin [1] | ED50 [1, 3] [mg/kg] | ED50 [1, 4] [mg/kg] | Efficacy in the murine S. aureus septicemia model by oral route [1] | pIC50 [2] | In vitro inhibition of E. coli transcription and translation compared with literature azepine compound VIII(18) [2] | MIC (Bacteroides fragilis) [µg/mL] | MIC (Enterococcus faecalis) [µg/mL] | MIC (Haemophilus influenzae) [µg/mL] | MIC (Staphylococcus aureus) [µg/mL]
COCCC[C@@H]1CCN[C@H](C(=O)N[C@@H]([C@H]2O[C@H](SC)[C@H](O)[C@@H](O)[C@H]2O)[C@H](C)Cl)CC1 [Example 13′, 5-(3-Methoxy-propyl)-azepane-2-carboxylic acid [2-chloro-1-(3,4,5-trihydroxy-6-methylsulfanyl-tetrahydro-pyran-2-yl)-propyl]-amide] | three to greater than five fold better | 0.28 | 6.84 | demonstrated the potential for use of the compounds as orally administered therapeutic agents | 6.08 | markedly superior | 4 (≈ 8.53 µM) | 0.5 (≈ 1.07 µM) | 1 (≈ 2.13 µM) | 0.06 (≈ 0.128 µM)
CS[C@H]1O[C@H]([C@H](NC(=O)C2CC[C@H](CCCF)CCN2)C(C)C)[C@H](O)[C@H](O)[C@H]1O (some centres unmarked) [Example 6′] | three to greater than five fold better | 0.28 | – | – | 6.12 | markedly superior | 1 (≈ 2.29 µM) | 0.25 (≈ 0.573 µM) | 2 (≈ 4.58 µM) | 0.06 (≈ 0.137 µM)
CS[C@H]1O[C@H]([C@H](NC(=O)C2CC[C@H](CCCCF)CCN2)C(C)C)[C@H](O)[C@H](O)[C@H]1O (stereo in doubt) [Example 4′, 5-(4-Fluoro-butyl)-azepane-2-carboxylic acid [2-methyl-1-(3,4,5-trihydroxy-6-methylsulfanyl-tetrahydro-pyran-2-yl)-propyl]-amide] | three to greater than five fold better | 0.28 | – | – | 6.31 | markedly superior | 1 (≈ 2.22 µM) | 0.125 (≈ 0.277 µM) | 0.5 (≈ 1.11 µM) | 0.06 (≈ 0.133 µM)
CS[C@H]1O[C@H]([C@H](NC(=O)C2CC[C@H](CCCF)CCN2)[C@H](C)Cl)[C@H](O)[C@H](O)[C@H]1O (stereo in doubt) [Example 5′, 5-(3-Fluoro-propyl)-azepane-2-carboxylic acid [2-chloro-1-(3,4,5-trihydroxy-6-methylsulfanyl-tetrahydro-pyran-2-yl)-propyl]-amide] | three to greater than five fold better | 0.18 | 6.84 | demonstrated the potential for use of the compounds as orally administered therapeutic agents | 5.62 | markedly superior | 0.25 (≈ 0.547 µM) | 0.06 (≈ 0.131 µM) | 0.25 (≈ 0.547 µM) | 0.03 (≈ 0.0656 µM)
CS[C@H]1O[C@H]([C@H](NC(=O)C2CC[C@H](CCCC#N)CCN2)[C@H](C)Cl)[C@H](O)[C@H](O)[C@H]1O (stereo in doubt) [Example 7′, 5-(3-Cyano-propyl)-azepane-2-carboxylic acid [2-chloro-1-(3,4,5-trihydroxy-6-methylsulfanyl-tetrahydro-pyran-2-yl)-propyl]-amide] | three to greater than five fold better | 0.29 | > 30 | – | 6.49 | markedly superior | 4 (≈ 8.62 µM) | 0.25 (≈ 0.539 µM) | 0.5 (≈ 1.08 µM) | 0.125 (≈ 0.269 µM)
CS[C@H]1O[C@H]([C@H](NC(=O)C2CC[C@H](CCCCF)CCN2)[C@H](C)Cl)[C@H](O)[C@H](O)[C@H]1O (stereo in doubt) [Example 3′, 5-(4-Fluoro-butyl)-azepane-2-carboxylic acid [2-chloro-1-(3,4,5-trihydroxy-6-methylsulfanyl-tetrahydro-pyran-2-yl)-propyl]-amide] | three to greater than five fold better | 0.32 | – | – | 6.72 | markedly superior | 0.5 (≈ 1.06 µM) | 0.06 (≈ 0.127 µM) | 0.25 (≈ 0.531 µM) | 0.03 (≈ 0.0637 µM)
CS[C@H]1O[C@H]([C@H](NC(=O)C2CC[C@H](CCCn3ccnn3)CCN2)[C@H](C)Cl)[C@H](O)[C@H](O)[C@H]1O (stereo in doubt) [Example 9′, 5-(3-[1,2,3]Triazol-1-yl-propyl)-azepane-2-carboxylic acid [2-chloro-1-(3,4,5-trihydroxy-6-methylsulfanyl-tetrahydro-pyran-2-yl)-propyl]-amide] | – | – | – | – | 6.55 | markedly superior | > 8 | 4 (≈ 7.9 µM) | 2 (≈ 3.95 µM) | 0.5 (≈ 0.988 µM)
